The subject of data set [1] is tyrosine phosphorylated proteins in NIH 3T3 cells. Description: Tyrosine phosphorylation in NIH 3T3 cells (Western blot with anti-phosphotyrosine antibodies). Format: cell-based. As to conditions: 1 min or 5 mins at 37° C., 0.5, 1, 2 or 4 μM, monoclonal antibodies (FIG. 3). On the procedure:
NIH-3T3 cells were grown under similar conditions in 1640 Eagle medium at 10% bovine calf serum plus 2 mM glutamine.
The cyclic phosphates 1,3 cGP, 1,3 cPP, 1,2 cGP, 1,2 cPP, P-1,3 cGP and P-1,3 cPP and the controls αGP and βGP were dissolved in HBSS, or methanol to form stocks of 1 mM or 10 mM. They were diluted into the cell culture medium to a final concentration of up to 20 μM. At the assigned stimulation time (0.5-20 min.) the medium was aspirated under vacuum and the cells were washed 3 times with cold (4° C.) phosphate buffered saline (PBS). The cells were then freeze-thawed 3 times with liquid nitrogen in 0.5 ml of a lysis buffer of PBS containing 1 mM phenylmethylsulfonyl fluoride, a cocktail of protease inhibitors (aprotinin, leuproptin, pepstatin A, phenanthroline, benzamidine HCl each at a concentration of 10 μg/ml) and a cocktail of phosphatase inhibitors (80 mM β-glycerophosphate, 2 mM EGTA and 50 μM Na3VO4), and then scraped off. The lysate was then vortexed and centrifuged for 2 minutes at 12.000 g. […] The protein concentration in each sample, as evaluated by the Bradford assay, was in the range of 1-1.5 mg/ml. […] Bound antibodies were detected by horseradish peroxidase-conjugated anti-rabbit antibodies (Transduction Laboratories, Lexington Ky.) after 2 hours incubation at room temperature, using the conventional ECL detection method. […]
On the technique in general: In western blotting, separated proteins are transferred to a membrane and probed.

In a further data set the test system is CHO cells. Description: Uptake of 32P labeled 1,3-cPP by CHO cells. Format: cell-based, Chinese hamster. The note with it: intact CHO cells, increasing amounts of unlabeled compound. Here is the method: After 2 washings with PBS the cells were disintegrated in 1 M NaOH and radioactivity was scored with a β counter. The insert presents the magnified uptake profile for short incubations (up to 2 minutes) where the intercept (0 time incubation) corresponded to approximately 3×10^6 molecules per cell, while at equilibrium (above 2 hours incubation) incorporation corresponded to approximately 2×10^8 molecules per cell.

The subject of data set [2] is tyrosine phosphorylated proteins in CHO cells. Nature of the data set: Tyrosine phosphorylation in CHO cells (Western blot with anti-phosphotyrosine antibodies). Format: cell-based, Chinese hamster. The note with it: CHO cells, 1, 3, 5 or 10 mins at 37° C., 1 μM or 2 μM, monoclonal antibodies (FIG. 2). Here is the method:
Chinese hamster ovary (CHO) cells (Puck, 1985; Gottesman, 1987) and NIH-3T3 cells (NIH), were used in the following experiments. CHO cells were grown at 37° C. in a humidified 5% CO2 atmosphere in 60×15 mm Petri dishes (Falcon) containing F12 medium supplemented with 10% fetal calf serum (FCS) and 2 mM glutamine. When reaching near confluence, the cells were placed under overnight starvation by replacing the medium to F12+2 mM glutamine with 0.1% FCS. The stimulation experiments were performed with cells which were under starvation for 12-18 hours.
The cyclic phosphates 1,3 cGP, 1,3 cPP, 1,2 cGP, 1,2 cPP, P-1,3 cGP and P-1,3 cPP and the controls αGP and βGP were dissolved in HBSS, or methanol to form stocks of 1 mM or 10 mM. They were diluted into the cell culture medium to a final concentration of up to 20 μM. At the assigned stimulation time (0.5-20 min.) the medium was aspirated under vacuum and the cells were washed 3 times with cold (4° C.) phosphate buffered saline (PBS). […] The protein concentration in each sample, as evaluated by the Bradford assay, was in the range of 1-1.5 mg/ml. […] Bound antibodies were detected by horseradish peroxidase-conjugated anti-rabbit antibodies (Transduction Laboratories, Lexington Ky.) after 2 hours incubation at room temperature, using the conventional ECL detection method. […]

The nature of data set [3]: Stability of cyclic phosphates in PBS / aqueous solution (TLC). It is filed as physicochemical. The note with it: 10 mg/ml in PBS, 37°, up to 24 hours.
Method: These possibilities were tested with the 4 cyclic phosphates (1,2 cGP, 1,3 cGP, 1,2 cPP and 1,3 cPPP (see Appendix A) in either aqueous solution or in cell lysates of CHO or NIH-3T3 cells (see Materials and Methods). 10 mg/ml cyclic phosphate in 1 ml of either PBS or PBS mixed with cell lysate (0.1 mg/ml protein) and incubated at 37° for up to 24 hours. Samples were tested at different times by thin layer chromatography on Silica gel 60 with n-propanol, concentrated ammonia, H2O (6:3:1 v/v/v). The Rr values for all 4 cyclic phosphates was in the range of 0.45-0.55 while α-GP and β-GP had Rf=0.14-0.16. This distinct difference allowed the qualitative detection of hydrolysis of the cyclic phosphate.
The subject of data set [4] is T47D human breast cancer cells. Nature of the data set: Proliferation of T47D human breast cancer cells (3H-thymidine). Format: cell-based. The note with it: 50 μM 1,3-cPP salt, days 1, 2 and 3 (P 0.0370, 0.0192, 0.0238) (FIG. 12). Here is the method: In this experiment, 8×10^4 T47D (clone 11) human breast cancer cells were plated in sets of 6 in 96 well microtiter plates and titrated concentrations (1-50 μM final concentrations) of 1,3-cPP salt in complete medium were added to the cultures at the beginning of the experiment only in a total volume of 200 μl per well. Plates were incubated at 37° C. over the course of 5 days, where 1 plate was pulsed with ^3H-thymidine (Sigma) overnight each day and subsequently frozen. All the plates were harvested together (Packard Micromate 196 Harvester, Merriden, Conn.) and scored on a 96 well plate reader (Packard Matrix 96, Merriden, Conn.).

A further data set deals with K562 leukemia cells. Description: Differentiation of K562 leukemia cells (hemoglobin, benzidine assay). It is filed as cell-based. As to conditions: 4 days, 10 μM 1,3 cPP in combination with 1.5 mM sodium butyrate (FIG. 13). On the procedure:
K562 leukemia cells are able to differentiate to the erythroid lineage. Such differentiation is characterized by the cells' ability to synthesize hemoglobin. Sodium butyrate is a known differentiation agent of such leukemia cells.
In this example, the ability of 1,3 cPP, α-GP and sodium butyrate alone and n combination to cause differentiation of K562 cells was evaluated using the known benzidine assay.
K562 cells were incubated for a period of 4 days with the following: • (a) growth medium (control); • (b) 10 μM of 1,3 cPP; • (c) […] of α-GP; • (d) 1.5 mM of sodium butyrate; • (e) a combination of sodium butyrate and 1,3 cPP; and • (f) sodium butyrate and α-GP.

A further data set relates to insulin receptor. Description: Tyrosine phosphorylation of the insulin receptor in CHO-T cells. The note with it: 20 mins, 0.1 μM 1,3 cPP in combination with 0.1 nM insulin (FIG. 10). It is filed as cell-based. On the procedure: Group 4: 0.1 μM 1,3, cPP only.
Tyrosine phosphorylation was determined using anti-phosphotyrosine antibody (as described above).

Data set [5] can be described thus: Stability of cyclic phosphates in cell lysates (TLC). As to conditions: 10 mg/ml in PBS mixed with CHO or NIH-3T3 cell lysate (0.1 mg/ml protein), 37°, up to 24 hours.
From the text: This distinct difference allowed the qualitative detection of hydrolysis of the cyclic phosphate.
The next data set concerns cell lysate phosphatases. Nature of the data set: Inhibition of phosphatase activity of cell lysate (PNPP substrate). Format: biochemical. The note with it: 50 μM, 50 mM PNPP, 90 minutes at 37° C., pH 7.4. On the procedure:
Inhibition of phosphatase activity of cell lysate by cyclic phosphates was assayed in 1.0 ml of 50 mM Tris-HCl buffer, pH 7.4, containing 50 mM p-nitrophenyl phosphate, PNPP, as a substrate. Reaction was initiated by the addition of crude cell lysate (100 μg/ml final protein concentration) and terminated after 90 minutes at 37° C. by an addition of 50 μl of 1M NaOH. […] Assays were conducted under the same conditions as above in the presence of 50 μM cyclic phosphate. The enzyme activity in the absence of inhibitor was taken as 100% activity.

A further data set deals with perforated CHO cells. Nature of the data set: Intracellular binding in perforated CHO cells (displacement of 1,3-cP32P). As to conditions: 20 μM 1,3-cP32P, 5 minutes at 4° C., increasing amounts of competitor (FIG. 9). Also on record: species or system Chinese hamster. On the procedure:
Radioactivity was scored after 2 washings with PBS at 4° C. as above. […] In this set of experiments the number of displaceable (i.e. specifically bound) ligands was estimated to be in the range of 10^7-10^8 per cell.

Experimental findings from patent US6872712B1, “Cyclic glycerophosphates and analogs thereof” (Yeda Research and Development Co. Ltd., priority 1999, dated 2005) are described below.

With `O=P1(O)OCCCO1` [1,3 cPP, 1,3 cyclic propanediol phosphate], the “level of tyrosine phosphorylated proteins” value in data set [1] was “augmented tyrosine phosphorylation”; in [2] it was “phosphorylation was most markedly seen in the band(s) having a molecular weight of about 35 kD and about 45 kD”. In addition, the “effect of unlabeled competitor on the uptake profile of 1,3-cP32P” value with CHO cells is listed as “remained essentially unaltered”. Besides, in data set [3], the “hydrolysis to the linear form in PBS” value is recorded as “No hydrolysis”. Further, the “proliferation versus cells in growth medium only” value in [4] was “significant inhibition”. Further, in the data set with K562 leukemia cells, the “synthesis of hemoglobin relative to sodium butyrate alone” value stood at 3 fold. In the data set on insulin receptor, the “phosphorylation of insulin receptor (117 kD and 200 kD bands) relative to insulin only” value is listed as “almost doubled”. Moreover, the “hydrolysis to the linear form by cell lysate” value in data set [5] is listed as “No hydrolysis”. In addition, in the data set with cell lysate phosphatases, the “inhibition of cell lysate phosphatase activity” value was 15-20%. In the data set with perforated CHO cells, the “displacement of 1,3-cP32P in perforated CHO cells” value is “specific binding”.
